Measured values published in paper PMC10518255, “A first-in-class pan-lysyl oxidase inhibitor impairs stromal remodeling and enhances gemcitabine response and survival in pancreatic cancer” (Nature Cancer, 2023).
Several values for one entry are separate records, joined by “and”; a condition that tells them apart may be missing. Identical values can stand only once.

Tests used:
KPC PDAC tumors = assay: FITC-dextran (10 kDa) perfusion imaging, KPC tumors; format: in vivo, mouse; conditions: for FITC-dextran (10 kDa) signal quantification: Extended Data 5C, KPC tumour endpoint, individual FOV, 5xFOV per tumour
Procedure: FITC-dextran (10 kDa) was administered at 40 mg ml^−1 in saline via tail vain 2 h before culling. Excised tumors were flash-frozen in OCT and cryosectioned at 14 μm. Sections were counterstained with 4,6-diamidino-2-phenylindole (DAPI) and images were collected using a Leica DMI5500 (×40 magnification). Images were quantified using Fiji Software for Integrated Density Signal.
Extended Data Fig. 5 PXS-5505 in combination with gemcitabine in vivo. a. […] Signal is defined as the enzyme activity in the aorta, while noise is measured in the presence of a high concentration (300 µM) BAPN to abolish any lysyl oxidase family activity. […] Data presented as mean values +/− SD b. […] Data presented as mean values +/− SD. c. FITC-dextran (molecular weight: 10 kDa) signal quantification from KPC tumor end point from each treatment group (vehicle n = 3 biologically independent animals, PXS-5505 n = 5 biologically independent animals, Gem n = 5 biologically independent animals, PXS-5505 + Gem n = 5 biologically independent animals). […] P-values determined by Welchs t-test. Data presented as mean values +/− SD. Scale bars = 100 μm d. Quantification of red birefringent (mature) collagen fibers from human PDXs at end point after 3 cycles of treatment, treated as indicated. […] Quantification of bulk modulus (stiffness) by unconfined compression testing of end point human PDX tumors from each treatment group (vehicle n = 5 biologically independent animals, Gem n = 5 biologically independent animals, PXS-5505 n = 5 biologically independent animals, PXS-5505 + Gem n = 5 biologically independent animals) [individual tumors shown]). […] FITC-dextran (molecular weight 10 kDa) signal quantification from human PDXs from each treatment group (vehicle n = 4 biologically independent animals, PXS-5505 n = 5 biologically independent animals, Gem n = 5 biologically independent animals, PXS-5505 + Gem n = 5 biologically independent animals). […] P values determined by Welchs t-test. g. […] Quantification of green birefringent (nascent) collagen fibers from human PDXs at end point, treated as indicated. […]

[1] = tested on: lysyl oxidase family members in KPC CAFs; assay: qRT-PCR of lysyl oxidase family members after treatment (Extended Data Figs. 2d, 3h); format: cell-based, mouse; set-up: qRT-PCR LOX (Ct) / qRT-PCR LOX ΔCt / qRT-PCR LOX ΔΔCt KPC CAF / qRT-PCR LOXL1 ΔCt / qRT-PCR LOXL1 ΔΔCt KPC CAF / qRT-PCR LOXL2 ΔCt / qRT-PCR LOXL2 ΔΔCt KPC CAF / qRT-PCR LOXL3 ΔCt / qRT-PCR LOXL3 ΔΔCt KPC CAF / qRT-PCR LOXL4 ΔCt / qRT-PCR LOXL4 ΔΔCt KPC CAF: dose or concentration left out as unconfirmed;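 on qRT-PCR LOX ΔCt: 30 µM PXS-5505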;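 on qRT-PCR LOXL2 ΔCt: 30 µM PXS-5505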;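 on qRT-PCR LOXL3 ΔCt: 30 µM PXS-5505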;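 on qRT-PCR LOXL4 ΔCt: 30 µM PXS-5505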
Procedure: RNA was isolated using the RNeasy mini kit (QIAGEN) according to the manufacturer’s instructions. Then, 1 μg of RNA was reverse transcribed using the Transcriptor First Strand cDNA Synthesis kit (Roche LifeScience) with anchored-oligo(dT)18 primers or the QuantiTect Reverse Transcription kit (QIAGEN). Real-time PCR was performed using the Roche LightCycler480 (Roche LifeScience) or QuantStudio 7 (Thermo Fisher). The following probe sets from Applied Biosystems, were used: LOX, Mm00495386; LOXL1, Mm01145738; LOXL2, Mm00804740; LOXL3, Mm01184867; LOXL4, Mm00446385; and GAPDH, Mm99999915. Primers and Roche Universal Probe Library probes used for RT–qPCR are described in Supplementary Table 4. Relative mRNA expression levels for each transcript of interest were normalized to GAPDH or ACTB (as indicated) and quantified using the comparative double ΔCt method (unless stated otherwise) for each biological replicate.
Extended Data Fig. 2 Characterization of cells derived from the KPC autochthonous model. a. Immunofluorescence staining of KPC CCs and KPC CAFs for the pancreatic epithelial cell marker CDH1 (green), DAPI (blue) and for the CAF marker α-SMA (yellow), DAPI (blue). Representative images from n = 3 biological independent samples. Scale bar = 30 μm. b. RNAseq reads for CAF and epithelial cell makers in KPC CAFs n = 3 biological independent samples. […] Data is presented as mean values ± SEM. […] Data presented as mean values +/− SD. […] Source data
Data presented as mean values +/− SD. f. […] Data presented as mean values +/− SD. […] Data presented as mean values +/− SD. […] Data presented as mean values +/− SD. Ordinary one-way ANOVA for multiple comparison test performed. Source data

[2] = 50 nM gemcitabine, 48 hours, per replicate
[3] = 50 nM gemcitabine, 48 hours, vs GAPDH, per replicate
[4] = 48 hour treatment, 30 M PXS-5505, replicates
[5] = 48 hour treatment, PXS-5505, replicates
[6] = 48 hour treatment, PXS-5505, vs GAPDH, replicates

## Nc1ccn([C@@H]2O[C@H](CO)[C@@H](O)C2(F)F)c(=O)n1 [Gem, gemcitabine]
KPC PDAC tumors
  FITC-dextran (10 kDa) signal quantification: 60068 and 66083 and 67045 and 264388 and 103749 and 136715 and 44993 and 342971 and 570220 and 195046 and 425899 and 308368 and 729076 and 598797 and 690249 and 193339 and 215616 and 99212 and 74761 and 57841
KPC PDAC tumors; KPC tumors at end point
  FITC-dextran signal (tumor perfusion): significantly reduced FITC signal
[1]; 50 nM gemcitabine for 48 hours
  expression of lysyl oxidase family members: increased
[1]; [2]
  LOX ΔΔCt CC: 1.655 and 2.327 and 2.145
  LOXL1 ΔΔCt CC: 1.866 and 1.895 and 1.813
  LOXL2 ΔΔCt CC: 2.3261 and 2.2233 and 1.33
  LOXL3 ΔΔCt CC: 1.66 and 2.86 and 2.05
  LOXL4 ΔΔCt CC: 2.014 and 1.617 and 1.18
[1]; [3]
  LOX ΔCt: 6.157 and 5.668 and 5.782
  LOXL1 ΔCt: 8.043 and 8.021 and 8.085
  LOXL2 ΔCt: 4.354 and 4.419 and 5.16
  LOXL3 ΔCt: 4.977 and 5.26 and 5.74
  LOXL4 ΔCt: 6.2696 and 6.5867 and 7.04

## Cl.Cl.NC/C=C(\F)CS(=O)(=O)c1cccc2cccnc12.O [PXS-5505, (Z)-3-fluoro-4-(quinolin-8-ylsulfonyl)but-2-en-1-amine dihydrochloride monohydrate]
KPC PDAC tumors
  FITC-dextran (10 kDa) signal quantification: 643536 and 877109 and 855018 and 639402 and 1028780 and 1101294 and 1096543 and 614729 and 1678517 and 411292 and 888855 and 96222 and 332580 and 192955 and 224263 and 475860 and 248857 and 803743 and 104073 and 736895
[1]; [4]
  qRT-PCR LOXL1 (Ct): 27.9242 and 27.0668
  qRT-PCR LOXL2 (Ct): 25.5976 and 25.3053 and 25.9273
  qRT-PCR LOXL3 (Ct): 27.0409 and 26.0554 and 26.3059
  qRT-PCR LOXL4 (Ct): 27.6755 and 27.1763 and 27.4097
[1]; [5]
  qRT-PCR LOX (Ct): 27.9362 and 27.041 and 26.9697
  qRT-PCR LOX ΔΔCt KPC CAF: 0.4495 and 1.003 and 0.5566
  qRT-PCR LOXL1 ΔΔCt KPC CAF: 0.5108 and 0.4889 and 0.4223
  qRT-PCR LOXL2 ΔΔCt KPC CAF: 0.6912 and 0.4472 and 0.4586
  qRT-PCR LOXL3 ΔΔCt KPC CAF: 0.6435 and 0.6732 and 0.893
  qRT-PCR LOXL4 ΔΔCt KPC CAF: 1.222 and 0.9127 and 1.225
[1]; [6]
  qRT-PCR LOX ΔCt: 9.054 and 7.896 and 8.745
  qRT-PCR LOXL1 ΔCt: 8.779 and 8.842
  qRT-PCR LOXL2 ΔCt: 6.453 and 7.081 and 7.045
  qRT-PCR LOXL3 ΔCt: 7.896 and 7.831 and 7.423
  qRT-PCR LOXL4 ΔCt: 8.531 and 8.952 and 8.527
[1]; PXS-5505 up to 300 µM
  transcription of lysyl oxidase family members: does not significantly alter transcription
